The test system of one data set is Phytophthora infestans. Format: in vivo. The conditions noted are these: 500 ppm of active ingredient; tomato, preventive; evaluated 7 days after inoculation; 100% = no disease.
A further data set has as its system Plasmopara viticola. The data set can be described thus: Plasmopara test (grapevines) / preventive. Format: in vivo. Conditions: 100 ppm of active ingredient, evaluated 6 days after inoculation, 100% = no disease. The method, then: Plasmopara Test (Grapevines)/Preventive
Solvent: 24.5 parts by weight of acetone
24.5 parts by weight of dimethylacetamide
Emulsifier: 1 part by weight of alkylaryl polyglycol ether
To produce a suitable preparation of active compound, 1 part by weight of active compound is mixed with the stated amounts of solvent and emulsifier, and the concentrate is diluted with water to the desired concentration.
To test for preventive activity, young plants are sprayed with the preparation of active compound at the stated rate of application. After the spray coating has dried on, the plants are inoculated with an aqueous spore suspension of Plasmopara viticola and then remain for 1 day in an incubation cabinet at approximately 20° C. and a relative atmospheric humidity of 100%. The plant is subsequently placed for 4 days in a greenhouse at approximately 21° C. and a relative atmospheric humidity of approximately 90%. The plants are then misted and placed for 1 day in an incubation cabinet.
The test is evaluated 6 days after the inoculation. 0% means an efficacy which corresponds to that of the untreated control, while an efficacy of 100% means that no disease is observed.

Data set [1] is described as follows: Measurement of logP values by HPLC on reversed phase columns (EEC directive 79/831 Annex V.A8). Format: physicochemical. Conditions: for Log P: pH 2.7, 0.1% formic acid in water / acetonitrile, single value.

Where two headings read alike, the source gives them in different places.

For the molecule `COc1ccccc1OCC(=O)Nc1nc(CON=C(c2ccccc2)c2nnsc2C)cs1` (mixture of isomers) [Example 57], the efficacy in the data set on Phytophthora infestans amounted to 100%; with Plasmopara viticola, 72%. Moreover, the “Log P [I1] main isomer” value in data set [1] (HPLC, pH 2.7, 0.1% formic acid, main isomer) is 3.89. In data set [1] (HPLC, pH 2.7, 0.1% formic acid, minor isomer), the “Log P [I2] minor isomer” value was 3.78.
Consider `Cc1snnc1C(=NOCc1cccc(NC(=O)C(F)(F)Oc2ccccc2)n1)c1ccccc1` [Example 2], for which the efficacy was determined as 100% in the data set with Phytophthora infestans and 74% in the data set on Plasmopara viticola. The “Log P” value in data set [1] (HPLC) came out at 4.54.
Consider `Cc1snnc1C(=NOCc1csc(NC(=O)COCCC(C)C)n1)c1ccccc1` [Example 3], for which the values for the efficacy in the data set with Phytophthora infestans and in the data set with Plasmopara viticola were 95% and 84%, respectively. In addition, the “Log P” value in data set [1] (HPLC) came out at 4.36.
For `Cc1snnc1C(=NOCc1csc(NC(=O)COc2ccccc2)n1)c1ccccc1` [Example 8] the same measures were 100%, 72% and 3.8.
The like results for `Cc1snnc1C(=NOCc1csc(NC(=O)C(C)Oc2ccccc2)n1)c1ccccc1` (stereo not drawn) [Example 15] were, in that order, 100%, 93% and 4.04.
The like results for `Cc1snnc1C(=NOCc1csc(NC(=O)COC2CCCC2)n1)c1ccccc1` [Example 23] were, in that order, 95%, 91% and 4.09.
Consider `C=CCOC(C)C(=O)Nc1nc(CON=C(c2ccccc2)c2nnsc2C)cs1` (stereo not drawn) [Example 25], for which the efficacy in the data set with Phytophthora infestans worked out at 98%; in the data set with Plasmopara viticola, 77%. Besides, in data set [1] (HPLC), the “Log P” value was found to be 3.61.
The like results for `Cc1snnc1C(=NOCc1csc(NC(=O)COCc2ccccc2)n1)c1ccccc1` [Example 27] were, in that order, 100%, 89% and 3.92.
For `Cc1snnc1C(=NOCc1csc(NC(=O)C(C)OCC2CC2)n1)c1ccccc1` (stereo not drawn) [Example 39] the same measures were 97%, 91% and 3.83.
The like results for `Cc1snnc1C(=NOCc1csc(NC(=O)COCC2CCC2)n1)c1ccccc1` [Example 53] were, in that order, 97%, 95% and 4.11.
As for `Cc1snnc1C(=NOCc1csc(NC(=O)COC2CCCCC2)n1)c1ccccc1` [Example 59, 2-(cyclohexyloxy)-N-{4-[({[(5-methyl-1,2,3-thiadiazol-4-yl)(phenyl)methylene]amino}oxy)methyl]-1,3-thiazol-2-yl}acetamide], the efficacy is recorded as 97% in the data set on Phytophthora infestans and 75% in the data set with Plasmopara viticola. The chromatographic logP in data set [1] (pH 2.7, HPLC, pH 2.7, 0.1% formic acid, main isomer, read-out: Log P [I1] main isomer) stood at 4.41; in data set [1] (pH 2.7, HPLC, pH 2.7, 0.1% formic acid, minor isomer, read-out: Log P [I2] minor isomer), 4.32; in data set [1] (reversed phase HPLC columns, pH 2.7, mixture of Z and E diastereoisomers, preparation example 1, read-out: logP(HCOOH)), 4.41.
For the molecule `Cc1snnc1C(=NOCc1csc(NC(=O)COCC(C)C)n1)c1ccccc1` [Example 63], the efficacy was 100% in the data set with Phytophthora infestans and 75% with Plasmopara viticola. Also, the “Log P” value in data set [1] (HPLC) is 4.01.
For `Cc1snnc1C(=NOCc1csc(NC(=O)COC(C)C)n1)c1ccccc1` [Example 65], the efficacy in the data set on Phytophthora infestans amounted to 95%; in the data set on Plasmopara viticola, 84%. The “Log P” value in data set [1] (HPLC) was determined as 3.59.

By Log P is commonly meant the decadic logarithm of the partition coefficient of the neutral form, usually between octanol and water. High values mean higher lipophilicity, low ones lower lipophilicity.

For the origin of these results see patent publication US20130116287A1 (priority 2010, published 2013).
